Results reported in patent publication US20170334919A1, “2-((4-AMINO-3-(3-FLUORO-5-HYDROXYPHENYL)-1H-PYRAZOLO[3,4-D]PYRIMIDIN-1 -YL)METHYL)-3-(2-(TRIFLUORO-MET HYL)BENZYL)QUINAZOLIN-4(3H)-ONE DERIVATIVES AND THEIR USE AS PHOSPHOINOSITIDE 3-KINASE INHIBITORS” (RESPIVERT LTD., priority 2013, published 2017).

Experiments:
[1] = tested on: PI3K δ (Akt phosphorylation in d-U937 cells); assay: PI3K δ cell based assay: H2O2-induced Akt phosphorylation in d-U937 cells; settings: Homo sapiens, dU937; inhibition of induced Akt phosphorylation; read-out: Cellular Activity REC50 values in d-U937 cells, H2O2 stimulus
Procedure: As a means of assessing PI3K δ activation in response to stimuli, the phosphorylation status of the protein, Akt, a downstream product of PI3Kδ, signaling was determined.
(§1) U937 cells, obtained from a human, leukemic, monocyte lymphoma cell line, were differentiated to macrophage-type cells by incubation with PMA (100 ng/mL) for 48 to 72 hr. Cells were then pre-incubated with either the test compound or vehicle for 2 hr and were then stimulated briefly by exposure to H2O2 (10 mM, 5-7 min) and the reaction stopped by replacing the media with 4% formaldehyde solution. […] After washing with buffer (PBS containing 0.1% Triton X-100), cells were incubated with an HRP-conjugated secondary antibody (Dako) and the resultant signal was determined colorimetrically (OD: 450 nm with a reference wavelength of 655 nm) using TMB substrate (substrate reagent pack supplied by R&D Systems, Inc.).
This reaction was stopped by the addition of H2SO4 solution (100 μL). […] After washing with buffer (PBS containing 0.1% Triton X-100) 1% SDS (100 μL) was added to each well and the plates were shaken lightly for 1 hr prior to measuring the absorbance at 595 nm (Varioskan® Flash, Thermo-Fisher Scientific). The measured OD450-655 readings were corrected for cell number by dividing the OD450-655 by the D595 readings. The ratio of pAkt signal to total Akt signal was used to quantitate the extent of PI3K δ activation. […]

[2] = tested on: poly-I:C-induced cell accumulation in mice airways; assay: Poly-I:C-induced cell accumulation in mice; assay type: in vivo, A/J mice
Procedure: Specific pathogen-free A/J mice (males, 5 weeks old) were dosed with poly (I:C)-LMW (1 mg/mL, 40 μL) (InvivoGen, San Diego, Calif., USA) intranasally twice daily for 3 days under anaesthasia (3% isoflurane). Test substances were dosed intra-nasally (50 μL in 10% DMSO/isotonic saline vehicle) 2 hr before each poly-I:C treatment. At 24 hr after the last poly-I:C challenge, animals were anesthetized, the trachea was cannulated and bronchial alveolar lavage (BAL) was obtained by instilling into and then withdrawing from the lungs, isotonic saline (100 mL/kg). Total cell numbers in the BALF samples were measured using a haemocytometer under a phase-contrast microscope.
The proportions of alveolar macrophages and neutrophils were determined by FACS analysis using anti-mouse MOMA2-FITC (macrophage) or anti-mouse 7/4-FITC (neutrophil). Cells were suspended in PBS and incubated with anti-MOMA2-FITC (2 μg/mL, Catalogue no SM065F, Acris Antibodies GmbH, Herford, Germany) or anti-7/4-FITC (2 μg/mL, Catalogue no CL050F, Acris Antibodies GmbH, Herford, Germany) for 30 min at 30° C., and then counterstained with propidium iodide (2 μg/mL) to allow exclusion of necrotic cells. The cells were washed with PBS, and transferred to FACS tubes. Samples was set in a flow cytometer (ALTRA II; Beckman Coulter Japan, Tokyo, Japan), and a single-parameter FL2 [PMT2] (FITC) histogram with log x-axis was plotted to illustrate relative intensity of FITC. Data files were stored for subsequent analysis using Kaluza analysis software (ver. 1.2) to calculate the proportion of each cell type.

[3] = tested on: PI3K γ (Akt phosphorylation in d-U937 cells); assay: PI3K γ cell based assay: MCP-1-induced Akt phosphorylation in d-U937 cells; settings: Homo sapiens, dU937; inhibition of induced Akt phosphorylation; read-out: Cellular Activity REC50 values in d-U937 cells, MCP-1 stimulus
Procedure: As a means of assessing the activation of PI3K γ in response to stimuli, the phosphorylation status of the protein, Akt, a downstream product of PI3K γ signalling, was determined following stimulation with MCP-1.
as §1, with “cells” for “cells, obtained from a human, leukemic, monocyte lymphoma cell line,”, “with MCP-1” for “by exposure to H2O2”, “nM, 1” for “mM, 5-7”
This reaction was stopped by addition of 1N H2SO4 solution (100 μL). […] After washing with buffer (PBS containing 0.1% Triton X-100) 1% SDS (100 μL) was added to each well and the plates were shaken lightly for 1 hr prior to measuring the absorbance at 595 nm (Varioskan® Flash, Thermo-Fisher Scientific). The measured OD450-655 readings were corrected for cell number by dividing the OD450-655 by the OD595 readings. The ratio of pAkt signal to total Akt signal was used to quantitate the extent of PI3K γ activation. […]

[4] = 0.002 mg/mL intra-nasal + Poly I:C
[5] = 0.02 mg/mL intra-nasal + Poly I:C
[6] = 0.2 mg/mL intra-nasal + Poly I:C

- EC50 [1]: 7.4 nM
- EC50 [3]: 16.5 nM
Structure (SMILES): COCCOCCOCC#Cc1cccc2nc(Cn3nc(-c4cc(O)cc(F)c4)c4c(N)ncnc43)n(Cc3ccccc3C(F)(F)F)c(=O)c12 [Compound (I), 2-((4-Amino-3-(3-fluoro-5-hydroxyphenyl)-1H-pyrazolo[3,4-d]pyrimidin-1-yl)methyl)-5-(3-(2-(2-methoxyethoxy)ethoxy)prop-1-yn-1-yl)-3-(2-(trifluoromethyl)benzyl)quinazolin-4(3H)-one]
- Cell numbers in BALF, Macrophages, % inhibition [2, 4]: 49%
- Cell numbers in BALF, Neutrophils, % inhibition [2, 4]: 0.3 (43) %
- Cell numbers in BALF, Macrophages, % inhibition [2, 5]: 0.3 (69) %
- Cell numbers in BALF, Neutrophils, % inhibition [2, 5]: 65%
- Cell numbers in BALF, Macrophages, % inhibition [2, 6]: 0.3 (79) %
- Cell numbers in BALF, Neutrophils, % inhibition [2, 6]: 0.2 (77) %
- potency versus compound A, poly-I:C-induced macrophage and neutrophil accumulation into BALF ([2]; direct comparison, FIG. 1): significantly greater potency than compound A
